Test results: patent publication US20100120921A1, “RENIN INHIBITORS FOR TREATMENT OF HYPERTENSION IN PATIENTS WITH HIGH SODIUM DIET” (NOVARTIS AG, priority 2007, published 2010)
“Also recorded” adds a separate entry of the source.

Tested on: patients with systolic hypertension
Assay: 12-week randomized, open-label, multi-center, cross-over clinical study of aliskiren 300 mg on high versus low sodium diet (24-hour ABPM)
Assay type: in vivo, human
Settings: aliskiren 300 mg once daily; 4 weeks high sodium (≧200 mmol/day) vs 4 weeks low sodium (≦100 mmol/day) diet; non-inferiority margin 4 mmHg
Experimental: The effect of Aliskiren (300 mg) on reduction in mean 24-hour ambulatory blood pressure systolic hypertensive patients using low and high sodium diets is examined in a 12-week, randomized, open-label, multi-center, cross-over study. Subjects with systolic hypertension have a 2-4 week washout of their current antihypertensive medications. Patients who meet 8-hour ABPM criteria at week 0 (ABPM mean daytime systolic blood pressure ≧135 mmHg and <160 mmHg) are randomized to either a high sodium (≧200 mmol/day) or low sodium (≦100 mmol/day) diet and will be dispensed aliskiren 300 mg.
After 2 and 4 weeks on the assigned sodium level diet, 24-hour urine (Bentley, Brook 2006) collections for sodium and creatinine are collected and measured to confirm adherence to the diet. After 4 weeks on the assigned sodium level diet, 24-hour ABPM is measured. Patients are then crossed over to the other level sodium diet. Those patients who had high sodium diet for the first four weeks start having low sodium diet for the next 4 weeks and vice versa. After 2 and 4 weeks on the new diet, 24-hour urine collections for sodium and creatinine are again collected and measured to confirm adherence to the diet. After 4 weeks on the newly assigned sodium level diet, 24-hour ABPM are measured. […]

SMILES: COCCCOc1cc(C[C@@H](C[C@H](N)[C@@H](O)C[C@H](C(=O)NCC(C)(C)C(N)=O)C(C)C)C(C)C)ccc1OC [aliskiren, 2(S),4(S),5(S),7(S)—N-(3-amino-2,2-dimethyl-3-oxopropyl)-2,7-di(1-methylethyl)-4-hydroxy-5-amino-8-[4-methoxy-3-(3-methoxy-propoxy)phenyl]-octanamide]
- antihypertensive effect (change in mean 24-hour ambulatory blood pressure) on high versus low sodium diet: the same (within the BP boundaries indicated) regardless of whether the subject ingests a high or a low sodium diet; also recorded: reduce blood pressure efficiently irrespective of the sodium intake
